Laboratory results from paper PMC6100582 (Molecules : A Journal of Synthetic Chemistry and Natural …, 2018).
In brackets after ≈: the same amount, converted by molar mass. Like-named read-outs stand apart in the source and are kept apart here.

How the values were obtained:
[1] = test system: Staphylococcus aureus ATCC 6538; assay: Antimicrobial susceptibility assay in vitro (MIC determination); type: cell-based; conditions: ATCC6538
[2] = test system: Acinetobacter baumannii MFBF 10913; assay: as above; type: cell-based; conditions: MFBF10913, serial microdilution, 18 h, 35 °C
Description: (§1) Stock solutions of the tested compounds were prepared in DMSO (10 mg/mL). […] The absorbance was recorded at 540 nm. As a positive quality control (susceptibility of strains) tetracycline hydrochloride (TC) (Sigma-Aldrich) was added into wells.

[3] = test system: Bacillus cereus ATCC 11778; assay: as above; type: cell-based; conditions: ATCC11778, serial microdilution, 18 h, 35 °C
Description: as §1

[4] = test system: Bacillus subtilis ATCC 6633; assay: as above; type: cell-based; conditions: ATCC6633, serial microdilution, 18 h, 35 °C
Description: as §1

[5] = test system: Streptococcus pneumoniae MFBF 10373; assay: as above; type: cell-based; conditions: MFBF10373, serial microdilution, 18 h, 35 °C
Description: as §1

[6] = test system: Mycobacterium marinum CAMP 5644; assay: Antimycobacterial susceptibility assay (MIC determination); type: cell-based; conditions: CAMP5644, 504 h
Description: The broth dilution micro-method in Middlebrook 7H9 medium (Difco, Lawrence, KS, USA) supplemented with ADC Enrichment (Becton, Dickinson and Comp.) was used to determine MIC as previously described. […] Bacterial inocula were prepared by transferring colonies from culture to sterile water. The cell density was adjusted to 0.5 McFarland units using a densitometer (Densi-La-Meter, LIAP, Riga, Latvia). The final inoculum was made by 1:1000 dilution of the suspension with sterile water. Drug-free controls, sterility controls and controls consisted of medium and DMSO (Sigma-Aldrich, St. Louis, MO, USA) alone were included. […] Ciprofloxacin (CIP), rifampicin (RIF) and isoniazid (INH) (Sigma-Aldrich, St. Louis, MO, USA) were used as the standards.

[7] = test system: Candida albicans ATCC 90028; assay: In vitro antifungal susceptibility testing (MIC determination); type: cell-based; conditions: ATCC90028
[8] = test system: Streptococcus pneumonia MFBF 10373; assay: Minimum biofilm eradication assay; type: cell-based, Streptococcus pneumoniae
Description: MBECs of fumardiamides 4a–f and succindiamides 5a–f were determined as follows. Each well (96-well plate) was filled with 100 µl of bacterial (10^7 CFU/mL) or yeast (5 × 10^6 CFU/mL) suspension. When the inhibition of yeast biofilm formation was tested, the wells were pre-treated with fetal bovine serum (FBS) (250 µl per well). Negative controls contained broth only. Positive controls were performed using standard antimicrobial drugs gentamycin (Gen) and Amph, respectively. […] Following incubation period, each well was aspirated, washed three times and vigorously shaken to remove all non-adherent bacteria/yeast. The remaining attached cells were fixed with methanol (15 min) and the plates were left to dry overnight. Formed biofilm was stained with crystal violet (1%, 5 min). Excess stain was rinsed by placing the plate under running tap water and the plates were left to dry. Adherent cells were solubilized using ethanol. The absorbance was read at 570 nm. The MBEC value represents the lowest dilution of a compound at which bacteria fail to grow.

Para-Influenza-3 Virus = assay: organism not typed; type: cell-based; conditions: Vero cells
Reovirus-1 = assay: Antiviral activity in Vero cell cultures; type: cell-based; conditions: Vero cells
Sindbis Virus = assay: microbe, parasite or virus in culture; type: cell-based; conditions: Vero
Coxsackie Virus B4 = assay: Antiviral activity in Vero cell cultures; type: cell-based; conditions: Enterovirus B, B4, Vero cells
[9] = test system: HL-60 (acute myeloid leukemia); assay: Antiproliferative screening (cytostatic activity); type: cell-based; conditions: Homo sapiens, HL-60; 72 h, IncuCyte imaging; read-out: IC50 HL-60
Description: (§2) Cytostatic activity was evaluated in vitro on nine different types of human tumor cell lines: Capan-1, Hap1, HCT-116, and NCI-H460, as well as hematological tumors such as DND-41, HL-60, K-562, MM.1S and Z-138 as described previously. All human tumor cell lines were acquired from the American Type Culture Collection (ATCC, Manassas, VA, USA), except for the DND-41 cell line which was purchased from the Deutsche Sammlung von Mikroorganismen und Zellkulturen (DSMZ Leibniz-Institut, Braunschweig, Germany) and the Hap1 cell line which was purchased from Horizon Discovery (Waterbeach, UK). Capan-1, Hap1, HL-60, K-562, Z-138, MM.1S and DND-41 were cultured in Iscove′s Modified Dulbecco′s Medium (IMDM, Gibco Life Technologies, Gaithersburg, MD, USA), HCT-116 were grown in McCoy′s 5A Medium (Gibco Life Technologies) and NCI-H460 were cultured in RPMI (Gibco Life Technologies). All media were supplemented with 10% FBS (HyClone, GE Healthcare Life Sciences, USA). Adherent cell lines HCT-116, Hap1, NCI-H460, and Capan-1 cells were seeded at a density between 400 and 1250 cells per well, in 384-well, black-walled, clear-bottomed tissue culture plates (Greiner Bio-One, Kremsmünster, Germany). After overnight incubation, cells were treated with test compounds at four different concentrations ranging from 100 to 0.8 µM. Suspension cell lines HL-60, K-562, Z-138, MM.1S, and DND-41 were seeded at densities ranging from 3000 to 10,000 cells per well in 384-well, black-walled, clear-bottomed tissue culture plates containing test compounds at the same four concentrations. The plates were incubated and monitored at 37 °C for 72 h in an IncuCyte (Essen BioScience Inc., Ann Arbor, MI, USA) for real-time imaging. Images were taken every 3 h, with one field image per well under 10× magnification. All compounds were tested with duplicate data points and averaged. […]

[10] = test system: Hap1 (chronic myeloid leukemia); assay: Antiproliferative screening (cytostatic activity); type: cell-based; conditions: Homo sapiens, HAP1; 72 h, IncuCyte imaging; read-out: IC50 Hap1
Description: as §2

[11] = test system: DND-41 (acute lymphoblastic leukemia); assay: Antiproliferative screening (cytostatic activity); type: cell-based, human; conditions: 72 h, IncuCyte imaging, read-out: IC50 DND-41
Description: as §2

in vitro = conditions: African green monkey
[12] = test system: broad variety of viral infections; assay: Antiviral evaluation, broad variety of viruses; type: cell-based; conditions: Vero cells; for EC50: reovirus-1, sindbis virus and Punta Toro virus, read-out: EC50 (range over viruses)
Vero cell cultures = conditions: Vero cells, microscopically detectable alteration of cell morphology; unit not printed in head (EC50 columns µM)
[13] = Mycobacterium marinum CAMP 5644, 21 days, 28 °C, read-out: MIC
[14] = MTS, read-out: EC50 Para-Influenza-3 Virus, MTS
[15] = MTS, read-out: EC50 Reovirus-1, MTS
[16] = read-out: EC50 Sindbis Virus, MTS
[17] = MTS, read-out: EC50 Coxsackie Virus B4, MTS
[18] = visual CPE score, read-out: EC50 Para-Influenza-3 Virus, Visual CPE Score
[19] = visual CPE score, read-out: EC50 Reovirus-1, Visual CPE Score
[20] = read-out: EC50 Sindbis Virus, Visual CPE Score
[21] = visual CPE score, read-out: EC50 Coxsackie Virus B4, Visual CPE Score

| Structure (SMILES) | MIC [1] | MIC [2] | MIC [3] | MIC [4] | MIC [5] | MIC [6, 13] | MIC [7] | MBEC [8] | EC50 (Para-Influenza-3 Virus; [14]) | EC50 (Reovirus-1; [15]) | EC50 (Sindbis Virus; [16]) | EC50 (Coxsackie Virus B4; [17]) | IC50 [9] | IC50 [10] | CC50 (in vitro) | IC50 ([11]; Homo sapiens, DND41, 72 h) | EC50 (Para-Influenza-3 Virus; [18]) | EC50 (Reovirus-1; [19]) | EC50 (Sindbis Virus; [20]) | EC50 (Coxsackie Virus B4; [21]) | other results |
| --- | --- | --- | --- | --- | --- | --- | --- | --- | --- | --- | --- | --- | --- | --- | --- | --- | --- | --- | --- | --- | --- |
| COc1cc(NC(C)CCCNC(=O)/C=C/C(=O)Nc2ccc(C(F)(F)F)cc2)c2ncccc2c1 (centres unmarked) [Compound 4f, (2E)-N′-{4-[(6-Methoxyquinolin-8-yl)amino]pentyl}-N-[4-(trifluoromethyl)phenyl]but-2-enediamide] | 50 µg/mL (≈ 99.9 µM) | 25 µg/mL (≈ 49.9 µM) | > 100 µg/mL | > 100 µg/mL | 50 µg/mL (≈ 99.9 µM) | 64 µg/mL (≈ 128 µM) | > 100 µg/mL | 50 µg/mL | > 50 µM | > 50 µM | > 50 µM | > 50 µM | > 100 µM | > 100 µM | > 50 µg/mL |  |  |  |  |  | IC50 [11]: > 100 µM |
| COc1cc(NC(C)CCCNC(=O)/C=C/C(=O)Nc2ccc(F)cc2)c2ncccc2c1 (centres unmarked) [Compound 4b, (2E)-N-(4-Fluorophenyl)-N′-{4-[(6-methoxyquinolin-8-yl)amino]pentyl}but-2-enediamide] | 12.5 µg/mL (≈ 27.7 µM) | 25 µg/mL (≈ 55.5 µM) | 25 µg/mL (≈ 55.5 µM) | 25 µg/mL (≈ 55.5 µM) | 12.5 µg/mL (≈ 27.7 µM) | 64 µg/mL (≈ 142 µM) | > 100 µg/mL | 25 µg/mL | > 50 µM | > 50 µM | > 50 µM | > 50 µM | > 100 µM | 66.4 µM | > 50 µg/mL | > 100 µM |  |  |  |  |  |
| COc1cc(NC(C)CCCNC(=O)/C=C/C(=O)Nc2cccc(Cl)c2)c2ncccc2c1 (centres unmarked) [Compound 4c, (2E)-N-(3-Chlorophenyl)-N′-{4-[(6-methoxyquinolin-8-yl)amino]pentyl}but-2-enediamide] | 12.5 µg/mL (≈ 26.8 µM) | 25 µg/mL (≈ 53.5 µM) | 25 µg/mL (≈ 53.5 µM) | 50 µg/mL (≈ 107 µM) | 25 µg/mL (≈ 53.5 µM) |  | > 100 µg/mL | 100 µg/mL | > 50 µM | 3.8 µM | 3 µM | > 50 µM | > 100 µM | > 100 µM | > 50 µg/mL | 8.4 µM | > 50 µM | > 50 µM | > 50 µM | > 50 µM | MIC ([6]; Mycobacterium marinum): 128 µg/mL (≈ 274 µM); selectivity index (SI), MCC and EC50 ratio [12]: 1.8–3.7; EC50 [12]: 3.1 to 5.5 µM; Cytotoxicity MCC (minimum cytotoxic concentration) (Vero cell cultures): 10 |
| COc1cc(NC(C)CCCNC(=O)/C=C/C(=O)Nc2cccc(C(F)(F)F)c2)c2ncccc2c1 (centres unmarked) [Compound 4e, (2E)-N′-{4-[(6-Methoxyquinolin-8-yl)amino]pentyl}-N-[3-(trifluoromethyl)phenyl]but-2-enediamide] | 50 µg/mL (≈ 99.9 µM) | 25 µg/mL (≈ 49.9 µM) | > 100 µg/mL | > 100 µg/mL | 50 µg/mL (≈ 99.9 µM) | 256 µg/mL (≈ 511 µM) | > 100 µg/mL | 50 µg/mL | > 50 µM | 3.1 µM | 5.3 µM | 3.1 µM | > 100 µM | > 100 µM | > 50 µg/mL | 8.9 µM | > 50 µM | > 50 µM | 4.2 µM | 2.7 µM | selectivity index (SI), MCC and EC50 ratio [12]: 1.8–3.7; EC50 [12]: 3.1 to 5.5 µM; Cytotoxicity MCC (minimum cytotoxic concentration) (Vero cell cultures): 10 |
| COc1cc(NC(C)CCCNC(=O)/C=C/C(=O)Nc2cccc(F)c2)c2ncccc2c1 (centres unmarked) [Compound 4a, (2E)-N-(3-Fluorophenyl)-N′-{4-[(6-methoxyquinolin-8-yl)amino]pentyl}but-2-enediamide] | > 100 µg/mL | > 100 µg/mL | > 100 µg/mL | 50 µg/mL (≈ 111 µM) | > 100 µg/mL | > 256 µg/mL | > 100 µg/mL | 12.5 µg/mL | > 50 µM | > 50 µM | > 50 µM | > 50 µM | 5.7 µM | 19.3 µM | 46.9 µg/mL (≈ 104 µM) | 6.7 µM |  |  |  |  |  |
| COc1cc(NC(C)CCCNC(=O)/C=C/C(=O)Nc2ccc(Cl)cc2)c2ncccc2c1 (centres unmarked) [Compound 4d, (2E)-N-(4-Chlorophenyl)-N′-{4-[(6-methoxyquinolin-8-yl)amino]pentyl}but-2-enediamide] | 6.1 µg/mL (≈ 13.1 µM) | 12.5 µg/mL (≈ 26.8 µM) | > 100 µg/mL | > 100 µg/mL | 12.5 µg/mL (≈ 26.8 µM) | 64 µg/mL (≈ 137 µM) | 12.5 µg/mL (≈ 26.8 µM) | 50 µg/mL | > 50 µM | > 50 µM | > 50 µM | > 50 µM | > 100 µM | > 100 µM | > 50 µg/mL | > 100 µM |  |  |  |  |  |
